Laboratory results reported in patent US6734211B1, “Compositions and methods for promoting nerve regeneration” (Oregon Health & Sciences University, priority 1999, dated 2004).

What was measured:
hippocampal cells = test: Neurite outgrowth of hippocampal cells after 72 hours; assay type: cell-based
Procedure: (§1) For analysis of neurite process length of cells, 20 fields per well were randomly photographed at 72 and 168 hours. Neurite lengths were measured on photographic prints using a Houston Instrument HI-PAD digitizing tablet connected to an IBM XT computer with appropriate software (Bioquant IV, R&M Biometrics, Nashville, Tenn.); only those processes greater than two times the cell body length were measured. Data from identically treated wells were not different and were therefore combined. […] Histograms were compared using a Mann-Whitney U test, which makes no assumptions about the shape of the distribution.
Utilizing the in vitro assay described in Example 2, the effect of radicicol on neurite outgrowth was investigated. Hippocampal cells were treated with radicicol at a concentration of 0.1 ng/mL and at a concentration of 10 ng/mL. The neurite outgrowth for radicicol treated cells was compared to the outgrowth for untreated cells and for cells treated with 10 ng/mL of NGF.
Utilizing the in vitro assay described in Example 2, the effect of heat alone or in combination with various compounds on neurite outgrowth was investigated. […] FIG. 5 also illustrates that a combination of heat treatment and treatment with both NGF, and Hsp-90 antibodies is not as effective as the combination of heat and NGF treatment. […]

[1] = system: SH-SY5Y human neuroblastoma cells; test: Neurite outgrowth of SH-SY5Y cells in the presence of NGF; assay type: cell-based; conditions: for neurite outgrowth, effect of the compound: with NGF, concentration dependence; for Mean Length of Top 50% of Neuritic Processes: 168 hours
Procedure: This Example illustrates that FK506 and geldanamycin promote nerve regeneration by a common mechanism. SH-SY5Y human neuroblastoma cells were maintained in DMEM medium (GIBCO) supplemented with 10% fetal calf serum (SIGMA), 50 IU/mL penicillin, and […] streptomycin (GIBCO) at 37° C. in 7% CO2. Cells were plated in six-well plates at 1×10^6 cells/well and treated with […] aphidicolin (SIGMA). At five days, cells were washed, treated with nerve growth factor (NGF) (Boehringer Mannheim, Indianapolis, Ind.) at 10 ng/mL ([…]) (Calbiochem-Novabiochem Int'l., La Jolla, Calif.) and/or geldanamycin (0.1, 1, and 10 nM) (Calbiochem-Novabiochem, La Jolla, Calif.) dissolved in the DMEM medium. Media was changed at 96 hours and replaced with fresh media containing the compounds (NGF plus FK506 and/or geldanamycin) for an additional 72 hours (total time, 168 hours). The top 50% of axonal lengths were selected for statistical analysis. All experiments were run in duplicate wells and repeated at least twice for reproducibility.
as §1
Neuroblastoma SH-SY5Y cells were used to examine human neurite outgrowth in vitro and to explore which neuroimmunophilin mediates the effect.

sciatic nerve = conditions: rat, following a sciatic nerve crush lesion; cited from earlier work
[2] = system: hippocampal neurons of FKBP-12 knockout mice; test: Axonal length in primary neuronal hippocampal cultures from FKBP-12 knockout mice; assay type: cell-based
Procedure: (§2) FKBP-12 knockout mice (Shou, et al., Nature 391:489, 1998) were used to test whether FKBP-12 is necessary for FK506's ability to increase nerve elongation. Such mice usually die from severe cardiomyopathy between embryonic day 14.5 (E14.5) and birth, consistent with the known association between FKBP-12 and calcium release channels. […] Primary neuronal hippocampal cultures were prepared from E18.5 homozygote FKBP-12 knockout and wild-type mice.

[3] = system: hippocampal neurons of wild-type mice; test: Axonal length in primary neuronal hippocampal cultures from wild-type mice; assay type: cell-based
Procedure: as §2

[4] = geldanamycin 10 nM co-treatment

Molecule: C[C@@H]1C[C@H]2O[C@@H]2/C=C\C=C\C(=O)Cc2c(Cl)c(O)cc(O)c2C(=O)O1 [radicicol]
- neurite outgrowth (cumulative histogram, FIG. 3) (hippocampal cells; radicicol 0.1 ng/mL and 10 ng/mL vs NGF 10 ng/mL): more effective than NGF alone in stimulating outgrowth

Molecule: C[C@]12CC[C@@H]3c4ccc(O)cc4CC[C@H]3[C@@H]1CC[C@@H]2O [β-estradiol]
- neurite outgrowth compared with dexamethasone ([1]; 50 nM each): greater positive effect on neurite outgrowth than dexamethasone (50 nM)
- neurite outgrowth, effect of the compound [1]: significantly increased neurite outgrowth in SH-SY5Y cells in a concentration-dependent manner

Molecule: [Na+].[Na+].[O]=[Mo](=[O])([O-])[O-] [molybdate, sodium molybdate]
- effect on neurite outgrowth promotion by FK506 ([1]; molybdate 20 mM): reduced the neurite outgrowth promotion elicited by FK506
- effect on neurite outgrowth promotion by FKBP-52 antibody ([1]; molybdate 20 mM): inhibited the neurite outgrowth-promoting effects of FKBP-52 antibody
- effect on neurite outgrowth promotion by β-estradiol and geldanamycin ([1]; molybdate 20 mM): completely [Mann-Whitney U test (α=0.05)] inhibited the neurite outgrowth-promoting effect of β-estradiol and geldanamycin
- neurite outgrowth-promoting effect of molybdate in the presence of dexamethasone ([1]; molybdate 20 mM): significantly [Mann-Whitney U test (α=0.05)] reduced compared to molybdate alone
- neurite outgrowth ([1]; molybdate 20 mM itself): agonist effect on neurite outgrowth

Molecule: COc1cccc(-c2cc(=O)c3ccccc3o2)c1N [PD 098059]
- effect on neurite outgrowth by NGF and FK-506 (FIG. 6) (hippocampal cells; 2 concentrations): blocks neurite outgrowth by NGF and FK-506 in a concentration dependent fashion
- effect on neurite outgrowth by radicicol (FIG. 7) (hippocampal cells; 2 concentrations): blocks the action of radicicol in a concentration dependent fashion
- effect on neurite outgrowth by radicicol (FIG. 7) (hippocampal cells; highest concentration): almost completely blocks activity

Molecule: C=CC[C@@H]1/C=C(\C)C[C@H](C)C[C@H](OC)[C@H]2O[C@@](O)(C(=O)C(=O)N3CCCC[C@H]3C(=O)O[C@H](/C(C)=C/[C@@H]3CC[C@@H](O)[C@H](OC)C3)[C@H](C)[C@@H](O)CC1=O)[C@H](C)C[C@@H]2OC [FK506]
- functional recovery and axonal regeneration (sciatic nerve): speed functional recovery and axonal regeneration in the rat in a dose-dependent manner
- Mean Length of Top 50% of Neuritic Processes ([1]; FK506 10 nM + NGF 10 ng/mL): 156 µm
- neurite outgrowth (cumulative histograms of neurite lengths) ([1]; FK506 10 pM-10 nM): increases neurite outgrowth
- neurite outgrowth (cumulative histograms of neurite lengths) ([1]; FK506 100 nM): less effective
- neurite outgrowth (cumulative histograms of neurite lengths) ([1]; FK506 1000 nM or greater): neurite outgrowth was inhibited
- neurite outgrowth, effect of the compound [1]: stimulate neurite outgrowth in a concentration dependent manner
- Mean axonal lengths of hippocampal neurons ([2]; FK506-treated cultures, FKBP-12 knockout, mean±S.E.M.): 264±18.2
- increase over non-treated values ([2]; FKBP-12 knockout cells): 30%
- Mean axonal lengths of hippocampal neurons ([3]; FK506-treated cultures, wild-type, mean±S.E.M.): 276±11.1
- increase over non-treated values ([3]; wild-type cells): 26%

Molecule: COC1=C2C[C@@H](C)C[C@H](OC)[C@H](O)[C@@H](C)/C=C(\C)[C@H](OC(N)=O)[C@@H](OC)/C=C\C=C(/C)C(=O)NC(=CC1=O)C2=O [Geldanamycin, geldanamycin]
- Mean Length of Top 50% of Neuritic Processes ([1]; geldanamycin 1 nM + NGF 10 ng/mL): 128 µm
- Mean Length of Top 50% of Neuritic Processes ([1]; geldanamycin 10 nM + NGF 10 ng/mL): 110 µm
- effect on neurite outgrowth promotion by FK506, dexamethasone or β-estradiol ([1]; geldanamycin 0.1 nM co-treatment): less effective in inhibiting the neurite outgrowth-promoting effect of all these compounds
- effect on neurite outgrowth promotion by FK506, dexamethasone or β-estradiol [1, 4]: inhibited neurite outgrowth promotion by FK506 , dexamethasone or β-estradiol
- effect on neurite outgrowth promotion by FKBP-52 antibody [1, 4]: enhanced the neurite outgrowth-promoting effect of the FKBP-52 antibody
- neurite outgrowth ([1]; geldanamycin 0.1-10 nM alone): increased neurite outgrowth in a concentration-dependent fashion
- neurite outgrowth, effect of the compound [1]: stimulate neurite outgrowth in a concentration dependent manner

B1: NGF: nerve growth factor (Boehringer Mannheim) (protein, UniProt P01139 122-241, looked up)
Beta-nerve growth factor: SSTHPVFHMGEFSVCDSVSVWVGDKTTATDIKGKEVTVLAEVNINNSVFRQYFFETKCRASNPVESGCRGIDSKHWNSYCTTTHTFVKALTTDEKQAAWRFIRIDTACVCVLSRKATRRG
modifications: Beta-nerve growth factor
- neurite outgrowth (cumulative histogram, FIG. 4) (hippocampal cells; NGF in combination with heat): more effective than either heat or NGF treatment alone in stimulating neurite outgrowth
- Mean Length of Top 50% of Neuritic Processes ([1]; NGF 10 ng/mL alone): 108 µm
